A word on the EC50: it is the concentration that produces a half-maximal response.

Bounds are passed on as bounds.

Experimental findings from paper PMC2631555 (Bioorganic & medicinal chemistry letters, 2008) are described below.

Data set [1] can be described thus: Solubility in PBS + 5% DMSO. As to conditions: 2 h, room temperature.
In the next data set the test system is Vero cells. Conditions: read-out: Vero EC50; 48 h exposure, CellTiter-Glo. In general terms: Cellular ATP, detected with luciferase, serves as a proxy for viable cell number.
For data set [2] the following is noted: PAMPA.
The next data set deals with tubulin. Conditions: 10 µM compound; purified tubulin 7.2 µM, GTP, 37°C, 0.5% DMSO.

With `COc1cc2c(c(OC)c1OC)-c1ccc(OC)c(=O)cc1[C@@H](NC(C)=O)CC2` [Colchicine], the Solubility entry in data set [1] is on record as “highly soluble”.
Take `COc1cc2c(c(OC)c1OC)-c1ccc(OC)c(=O)cc1[C@@H](NC(=O)CCCCCNC(=O)COc1ccc(/C=C/C3=[N+]4C(=Cc5ccc(-c6ccc[nH]6)n5[B-]4(F)F)C=C3)cc1)CC2` [colchicine-646]: in the data set with Vero cells, the concentration giving a half-maximal response (EC50) is more than 10 µM. In data set [2], the Permeability was <10 10^-6 cm/s.
Take `CC(=O)O[C@H]1C(=O)[C@@]2(C)[C@H]([C@H](OC(=O)c3ccccc3)[C@]3(O)C[C@H](OC(=O)[C@H](O)[C@@H](NC(=O)c4ccccc4)c4ccccc4)C(C)=C1C3(C)C)[C@]1(OC(C)=O)CO[C@@H]1C[C@@H]2O` [paclitaxel]: the “Microtubule formation compared with untreated tubulin” value with tubulin is “enhanced”.
